In this experiment the target is T1, human amylin receptor (Homo sapiens, UniProt O60896+P30988).
T1 construct: host or cells: CHO-K1/Ga15/AMY3 cells, further stably transfected with a CRE-luciferase plasmid
T1 sequence (P30988 25-474): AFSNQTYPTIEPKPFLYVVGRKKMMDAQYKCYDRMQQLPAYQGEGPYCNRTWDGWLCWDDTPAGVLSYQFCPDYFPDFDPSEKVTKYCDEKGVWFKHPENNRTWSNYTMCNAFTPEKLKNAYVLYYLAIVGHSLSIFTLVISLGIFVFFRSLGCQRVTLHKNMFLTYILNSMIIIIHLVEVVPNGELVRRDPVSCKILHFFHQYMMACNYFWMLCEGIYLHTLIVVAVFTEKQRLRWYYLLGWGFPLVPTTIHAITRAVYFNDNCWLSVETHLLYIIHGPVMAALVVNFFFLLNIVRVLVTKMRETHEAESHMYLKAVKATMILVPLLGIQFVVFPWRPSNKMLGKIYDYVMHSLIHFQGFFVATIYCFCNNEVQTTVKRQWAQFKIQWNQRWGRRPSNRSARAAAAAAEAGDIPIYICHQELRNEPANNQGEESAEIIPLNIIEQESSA
T1 sequence (O60896 24-148 partner): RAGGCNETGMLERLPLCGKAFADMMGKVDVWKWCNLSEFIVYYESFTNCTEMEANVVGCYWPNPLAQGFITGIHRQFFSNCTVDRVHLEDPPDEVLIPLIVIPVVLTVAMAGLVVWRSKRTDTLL
The experiment is described as follows: Luciferase assay of amylin derivatives in amylin receptor/CRE-luc CHO cell line. It is filed as cell-based. The following applies: 24 hours incubation, F12 medium containing 10% FBS.

The mark [1] stands for this setting: CHO-K1/Ga15/AMY3 CRE-luc cells, read-out: EC50.

Each structure is given as a SMILES string. Where two headings read alike, the source gives them in different places. Numbered stars: 1 amine (or outer) side, 2 acyl side, 3 side chain; on linkers, the order of the positions; unused ones are H or OH. Bridge positions count the residues as written; N and C are the ends. Square brackets hold non-standard residues; d marks the D form. Side chains are listed from the residue outwards. Peptide text beside a SMILES is read from it. * marks the point of attachment. C20 diacid = O=C(O)CCCCCCCCCCCCCCCCCCC(=O)*; C18 diacid = O=C(O)CCCCCCCCCCCCCCCCC(=O)*; γGlu = O=C(O)[C@H](CCC(=O)[*:2])N[*:1]; Hyp = O=C(O)[C@@H]1C[C@@H](O)CN1; Dab = NCC[C@H](N)C(=O)O; AEEA = NCCOCCOCC(=O)O; Inp = O=C(O)C1CCNCC1

Description: The experiment was intended to detect the activity or efficacy of the amylin derivatives on a human amylin receptor in vitro by luciferase assay.
50 μL of growth medium (F12 medium containing 10% FBS) was added into each well of a white 96-well plate, and the stably transfected amylin/CRE-lue CHO cells were inoculated into the white 96-well plate at a density of about 20,000 cells/well for activity determination.

Turning to `CC[C@H](C)[C@H](NC(=O)[C@@H]1CCCN1C(=O)[C@H](CCCCN)NC(=O)[C@H](CC(C)C)NC(=O)[C@H](CC(N)=O)NC(=O)[C@H](CC(N)=O)NC(=O)[C@H](CO)NC(=O)[C@H](CO)NC(=O)[C@H](Cc1c[nH]cn1)NC(=O)[C@H](CCCNC(=N)N)NC(=O)[C@H](CC(C)C)NC(=O)[C@H](Cc1ccccc1)NC(=O)[C@H](CC(=O)O)NC(=O)[C@H](C)NC(=O)[C@H](CC(C)C)NC(=O)[C@H](CCCNC(=N)N)NC(=O)[C@H](CCC(N)=O)NC(=O)[C@@H](NC(=O)[C@H](C)NC(=O)[C@@H]1CSSC[C@H](NC(=O)[C@H](CCCCN)NC(=O)COCCOCCNC(=O)COCCOCCNC(=O)C2CCN(C(=O)CCCCCCCCCCCCCCCCCCC(=O)O)CC2)C(=O)N[C@@H](CC(N)=O)C(=O)N[C@@H]([C@@H](C)O)C(=O)N[C@@H](C)C(=O)N[C@@H]([C@@H](C)O)C(=O)N1)[C@@H](C)O)C(=O)N[C@@H](CC(C)C)C(=O)N1CCC[C@H]1C(=O)N1CCC[C@H]1C(=O)N[C@H](C(=O)N[C@@H](CC(N)=O)C(=O)N[C@H](C(=O)NCC(=O)N[C@@H](CO)C(=O)N[C@@H](CC(N)=O)C(=O)N[C@H](C(=O)N1C[C@H](O)C[C@H]1C(N)=O)[C@@H](C)O)C(C)C)[C@@H](C)O` [PD179] ({C20 diacid-Inp-AEEA-AEEA}-KCNTATCATQRLADFLRHSSNNLKPILPPTNVGSNT[Hyp]-NH2; disulfide 2-7), the 50% effective concentration (EC50) (as a rule, the concentration giving half of the maximal effect) under setting [1] is 0.017 nM.
Compound `CC[C@H](C)[C@H](NC(=O)[C@@H]1CCCN1C(=O)CNC(=O)[C@H](CC(C)C)NC(=O)[C@H](CC(N)=O)NC(=O)[C@H](CC(N)=O)NC(=O)[C@H](CO)NC(=O)[C@H](CCCCNC(=O)COCCOCCNC(=O)COCCOCCNC(=O)CC[C@H](NC(=O)CCCCCCCCCCCCCCCCC(=O)O)C(=O)O)NC(=O)[C@H](Cc1c[nH]cn1)NC(=O)[C@H](CCCNC(=N)N)NC(=O)[C@H](CC(C)C)NC(=O)[C@H](Cc1ccccc1)NC(=O)[C@H](CC(=O)O)NC(=O)[C@H](C)NC(=O)[C@H](CC(C)C)NC(=O)[C@H](CCCNC(=N)N)NC(=O)[C@H](CCC(N)=O)NC(=O)[C@@H](NC(=O)[C@H](C)NC(=O)[C@@H]1CSSC[C@H](NC(=O)[C@@H](N)CCCNC(=N)N)C(=O)N[C@@H](CC(N)=O)C(=O)N[C@@H]([C@@H](C)O)C(=O)N[C@@H](C)C(=O)N[C@@H]([C@@H](C)O)C(=O)N1)[C@@H](C)O)C(=O)N[C@@H](CC(C)C)C(=O)N1CCC[C@H]1C(=O)N1CCC[C@H]1C(=O)N[C@H](C(=O)N[C@@H](CC(N)=O)C(=O)N[C@H](C(=O)NCC(=O)N[C@@H](CO)C(=O)N[C@@H](CC(N)=O)C(=O)N[C@H](C(=O)N1C[C@H](O)C[C@H]1C(N)=O)[C@@H](C)O)C(C)C)[C@@H](C)O` [PD101] (H-RCNTATCATQRLADFLRHK([AEEA-AEEA-γGlu-C18 diacid])SNNLGPILPPTNVGSNT[Hyp]-NH2; disulfide 2-7) gave an EC50 (EC50, CHO-K1/Ga15/AMY3 CRE-luc cells) of 0.012 nM.
Consider `CC[C@H](C)[C@H](NC(=O)[C@@H]1CCCN1C(=O)[C@H](CCN)NC(=O)[C@H](CC(C)C)NC(=O)[C@H](CC(N)=O)NC(=O)[C@H](CC(N)=O)NC(=O)[C@H](CO)NC(=O)[C@H](CO)NC(=O)[C@H](Cc1c[nH]cn1)NC(=O)[C@H](CCCNC(=N)N)NC(=O)[C@H](CC(C)C)NC(=O)[C@H](Cc1ccccc1)NC(=O)[C@H](CC(=O)O)NC(=O)[C@H](C)NC(=O)[C@H](CC(C)C)NC(=O)[C@H](CCCNC(=N)N)NC(=O)[C@H](CCC(N)=O)NC(=O)[C@@H](NC(=O)[C@H](C)NC(=O)[C@@H]1CSSC[C@H](NC(=O)[C@H](CCCCN)NC(=O)CC[C@H](NC(=O)CCCCCCCCCCCCCCCCCCC(=O)O)C(=O)O)C(=O)N[C@@H](CC(N)=O)C(=O)N[C@@H]([C@@H](C)O)C(=O)N[C@@H](C)C(=O)N[C@@H]([C@@H](C)O)C(=O)N1)[C@@H](C)O)C(=O)N[C@@H](CC(C)C)C(=O)N1CCC[C@H]1C(=O)N1CCC[C@H]1C(=O)N[C@H](C(=O)N[C@@H](CC(N)=O)C(=O)N[C@H](C(=O)NCC(=O)N[C@@H](CO)C(=O)N[C@@H](CC(N)=O)C(=O)N[C@H](C(=O)N1CCC[C@H]1C(N)=O)[C@@H](C)O)C(C)C)[C@@H](C)O` [PD169] ({C20 diacid-γGlu}-KCNTATCATQRLADFLRHSSNNL[Dab]PILPPTNVGSNTP-NH2; disulfide 2-7 (inferred)), for which the EC50 under setting [1] stood at 0.039 nM.
Consider `CC[C@H](C)[C@H](NC(=O)[C@@H]1CCCN1C(=O)[C@H](CCCCNC(=O)CC[C@H](NC(=O)CCCCCCCCCCCCCCCCCCC(=O)O)C(=O)O)NC(=O)[C@H](CC(C)C)NC(=O)[C@H](CC(N)=O)NC(=O)[C@H](CC(N)=O)NC(=O)[C@H](CO)NC(=O)[C@H](CO)NC(=O)[C@H](Cc1c[nH]cn1)NC(=O)[C@H](CCCNC(=N)N)NC(=O)[C@H](CC(C)C)NC(=O)[C@H](Cc1ccccc1)NC(=O)[C@H](CCC(=O)O)NC(=O)[C@H](C)NC(=O)[C@H](CC(C)C)NC(=O)[C@H](CCCNC(=N)N)NC(=O)[C@H](CCC(N)=O)NC(=O)[C@@H](NC(=O)[C@H](C)NC(=O)[C@@H]1CSSC[C@H](NC(=O)[C@@H](N)CCCNC(=N)N)C(=O)N[C@@H](CC(N)=O)C(=O)N[C@@H]([C@@H](C)O)C(=O)N[C@@H](C)C(=O)N[C@@H]([C@@H](C)O)C(=O)N1)[C@@H](C)O)C(=O)N[C@@H](CC(C)C)C(=O)N1CCC[C@H]1C(=O)N1CCC[C@H]1C(=O)N[C@H](C(=O)N[C@@H](CC(N)=O)C(=O)N[C@H](C(=O)NCC(=O)N[C@@H](CO)C(=O)NCC(=O)N[C@H](C(=O)N1C[C@H](O)C[C@H]1C(N)=O)[C@@H](C)O)C(C)C)[C@@H](C)O` [PD041] (H-RCNTATCATQRLAEFLRHSSNNLK([γGlu-C20 diacid])PILPPTNVGSGT[Hyp]-NH2; disulfide 2-7), for which the EC50 under setting [1] came to 0.259 nM.
Regarding `CC[C@H](C)[C@H](NC(=O)[C@@H]1CCCN1C(=O)CNC(=O)[C@H](CCCCNC(=O)CC[C@H](NC(=O)CCCCCCCCCCCCCCCCCCC(=O)O)C(=O)O)NC(=O)[C@H](CC(N)=O)NC(=O)[C@H](CC(N)=O)NC(=O)[C@H](CO)NC(=O)[C@H](CO)NC(=O)[C@H](Cc1c[nH]cn1)NC(=O)[C@H](CCCNC(=N)N)NC(=O)[C@H](CC(C)C)NC(=O)[C@H](Cc1ccccc1)NC(=O)[C@H](CC(=O)O)NC(=O)[C@H](C)NC(=O)[C@H](CC(C)C)NC(=O)[C@H](CCCNC(=N)N)NC(=O)[C@H](CCC(N)=O)NC(=O)[C@@H](NC(=O)[C@H](C)NC(=O)[C@@H]1CSSC[C@H](NC(=O)[C@@H](N)CCCNC(=N)N)C(=O)N[C@@H](CC(N)=O)C(=O)N[C@@H]([C@@H](C)O)C(=O)N[C@@H](C)C(=O)N[C@@H]([C@@H](C)O)C(=O)N1)[C@@H](C)O)C(=O)N[C@@H](CC(C)C)C(=O)N1CCC[C@H]1C(=O)N1CCC[C@H]1C(=O)N[C@H](C(=O)N[C@@H](CC(N)=O)C(=O)N[C@H](C(=O)NCC(=O)N[C@@H](CO)C(=O)N[C@@H](CC(N)=O)C(=O)N[C@H](C(=O)N1C[C@H](O)C[C@H]1C(N)=O)[C@@H](C)O)C(C)C)[C@@H](C)O` [PD082] (H-RCNTATCATQRLADFLRHSSNNK([γGlu-C20 diacid])GPILPPTNVGSNT[Hyp]-NH2; disulfide 2-7), the EC50 under setting [1] amounted to 0.038 nM.

The values are drawn from patent US20260166128A1, “HUMAN AMYLIN ANALOG, AND DERIVATIVE THEREOF AND USE THEREOF” (priority 2022, published 2026).
